Measured values published in paper PMC10470491, “Modulation of the functional interfaces between retroviral intasomes and the human nucleosome” (mBio, 2023).
Read-outs that look alike come from different tables or passages of the source.

How the values were obtained:
[1] = test system: PFV intasome/nucleosome complex; assay: AlphaLISA PFV intasome/nucleosome interaction assay; type: binding, prototype foamy virus (PFV); human mononucleosome
Experimental: AlphaLISA is a technology particularly suitable for bimolecular inhibitor screening assays using protein-protein interactions with purified recombinant proteins. The AlphaLISA assay development was performed in 96-well 12 area Alphaplate (reference 6052340, PerkinElmer, Waltham, MA, USA) with a final reaction volume of 40 µL. Cross-titration experiments of biotinylated MN (0–50 nM) against DIG-intasome (0–100 nM) were carried out to establish optimal assay concentrations for the binding assay. Ten microliters of each protein were diluted in the binding buffer 50 mM BisTris-propane pH 7, 100 mM NaCl, 0.1% (v/v) Tween-20, 0.1% (w/v) BSA, and 1 mM dithiothreitol. The plate was incubated at RT for 2 h in rotation. Ten microliters of anti-DIG acceptor beads (PerkinElmer, reference AL113) were then added, and after 1 h of incubation at RT with rotation, 10 µL of streptavidin […] (Perkin Elmer, reference 6760002) was mixed to the wells. This established a final concentration of 20 µg/mL for each bead. The plate was then incubated for 1 h at RT in the dark before the AlphaLISA signal was detected using an EnSpire Multimode Plate Reader (PerkinElmer). Negative control with binding buffer or only with one of the complexes was used to control the assay quality. Data were analyzed with GraphPad Prism 5.01 software. To evaluate tolerance for DMSO, the assay was performed as described above with an addition of 0.15–20% (v/v) of DMSO during the binding step. For the competition experiment, increasing concentrations of untagged intasome were titrated out in the 1-nM DIG-intasome/biotinylated nucleosome interaction assay.
For the AlphaLISA screening assay with the NIH OncoSET library, the binding conditions were optimized for use in 384-well plate (Optiplate, reference 6007290, PerkinElmer) with the same concentrations for complexes and beads in a final reaction volume of 20.5 µL (2.5% DMSO final concentration). The screening was first carried out with 25 µM of each compound pre-incubated for 1 h with 1 nM intasome/nucleosome complexes. Compounds were selected as inducing at least 50% decrease of the AlphaLISA signal control condition, and their inhibitory effect was further tested using dose-response curves. For compounds validation, counter select assay was performed using a short DNA fragment carrying a biotin and a DIG tag on each side. The AlphaLISA signal was monitoring using increasing concentrations of the double-tagged DNA, and the selected compounds were tested in optimized conditions at 10 µM. Any compound that causes decreased signal means that it interferes with AlphaLISA readout, and therefore, it is not relevant to this assay.

[2] = test system: HIV-1 intasome (vDNA•IN•LEDGF/p75); assay: in vitro HIV-1 concerted integration onto mononucleosome; type: biochemical
histone tails = biological target: histone tails; design: method as in PMID 26503405; settings: ref [18]; cited from earlier work
PFV intasome = PFV intasome (Human spumaretrovirus, UniProt P14350); assay: biochemical; type: biochemical, prototype foamy virus (PFV); design: Briefly, PFV IN and its cognate vDNA were mixed, and assembled intasomes were purified by size exclusion chromatography; octamers produced in E. coli; settings: for inhibition of PFV integration into MNs: 30 nM FITC PFV intasome, MN, drugs 0–25 µM
Experimental: Integration assays using purified assembled intasomes were performed as followed: either 100 ng of naked DNA or 100 ng of DNA assembled on 100 ng of histone octamers (24 nM final concentration) was incubated with 30 nM final concentration of purified intasome in 100 mM NaCl, 20 mM BTP pH 7, 12.5 mM MgSO4 (for PFV intasome), or in 20 mM HEPES pH 7, 7.5% DMSO, 8% PEG, 10 mM MgCl2, 20 µM ZnCl2, 100 mM NaCl, 5 mM DTT final concentration (for HIV-1 intasome) in a final volume of 40 µL. The mix was then incubated at 37°C for 15 min and 1 h, respectively. Then, reaction was stopped by the addition of 5.5 µL of a mix containing 5% SDS and 0.25 M EDTA and deproteinized with proteinase K (Promega) for 1 h at 37°C. Nucleic acids were then precipitated with 150 µL of ethanol overnight at −20°C. Samples were then spun at top speed for 1 h at 4°C, and the pellets were dried and then resuspended with DNA loading buffer. Integration products were separated on an 8% native polyacrylamide gel.

mononucleosome (MN) = assay: histone eviction assay (EMSA / SDS-PAGE); type: biochemical, human; settings: 10 µM or increasing concentrations
HIV-1 subtype B virus [3] = assay: HIV-1 infection assay in PBMCs (HIV-1 RNA in supernatant); type: cell-based; settings: Human immunodeficiency virus 1, PBMC, read-out: IC50 of HIV-1 replication
Experimental: PBMCs were isolated from blood samples using Ficoll-Hypaque gradient centrifugation. After separation, PBMCs were pelleted by centrifugation. […] Next, PBMCs were harvested (7 min, 400 × g) and resuspended in 500 µL culture medium. […] Then, the medium was removed, and 10 mL of RPMI 1640 was added to wash the cells. The cells were harvested at low speed (400 × g), and the washed-cell pellet was resuspended in 2 mL of supplemented RPMI 1640. The cell suspension was added to wells of a 24-well tissue culture plate and incubated at 37°C. HIV-1 RNA from plasma samples was determined at 24, 48, and 72 h postinfection.

HIV-1 subtype B virus [4] = assay: qPCR quantification of viral DNA populations in infected PBMCs; type: cell-based
[5] = test system: Vpr-BLaM containing NL-4.3 or NL-4.3Δenv-VSV-G viruses; type: cell-based, HIV-1
HIV-1 intasome = settings: MN assembled onto natural DO2 sequence

SMILES	inhibition of intasome/nucleosome association in AS ([1]; increasing drug concentrations)	IC50 ([2]; Table 4, title: in vitro HIV-1 integration inhibition, read-out: Integration IC50) [nM]	Kd (histone tails) [µM]	inhibition of PFV integration into MNs (PFV intasome)	decrease in the AS signal ([1]; OncoSET screen, 25 µM drug, 1 nM of each partner)	IC50 ([1]; intasome/nucleosome AS assay, increasing drug concentrations, Fig. 3E) [nM]	effect on the intasome/nucleosome AS signal ([1]; retest at 10 µM, MN)	histone eviction / MN dissociation (mononucleosome (MN))	IC50 ([2]; preformed HIV-1 intasome, MN, read-out: IC50 of in vitro HIV-1 integration) [nM]	IC50 ([2]; preformed HIV-1 intasome, native MN (601), read-out: IC50 of in vitro HIV-1 integration) [nM]	IC50 (HIV-1 subtype B virus [3]) [nM]	effect on total viral DNA (HIV-1 subtype B virus [4]; 20 h postinfection)	effect on integrated DNA (HIV-1 subtype B virus [4]; infected PBMCs)	effect on two-LTR circles (HIV-1 subtype B virus [4]; infected PBMCs)	effect on viral fusion / entry [5]	inhibition of HIV-1 integration into DO2 nucleosome (HIV-1 intasome)	cytotoxicity (PBMC cells)	IC50 (PFV intasome) [nM]
O=S(=O)(O)c1cc2c(O)c(c1)Cc1cc(S(=O)(=O)O)cc(c1O)Cc1cc(S(=O)(=O)O)cc(c1O)Cc1cc(S(=O)(=O)O)cc(c1O)C2 [CA1]	less efficient in inhibiting the association	> 1000	17.8 to 20.4	inefficient in our assay	–	–	–	–	–	–	–	–	–	–	–	–	–	–
COc1cccc2c1C(=O)c1c(O)c3c(c(O)c1C2=O)C[C@@](O)(C(=O)CO)C[C@@H]3O[C@H]1C[C@H](N)[C@H](O)[C@H](C)O1 [Doxorubicin, doxorubicin]	–	–	–	able to inhibit PFV integration into MNs	at least 50%	870 ± 40	strong inhibitory effect	full shift of the nucleosomal DNA in addition to a strong MN dissociation	~300	< 1000	2 to 20	no effect	decreased	increased	did not affect this early entry step	as efficient in inhibiting the HIV-1 integration into DO2 nucleosome than onto the 601 nucleosome	poor cytotoxicity	< 1000
